Results reported in article PMC5766609 (Scientific Reports, 2018).
Where two headings read alike, the source gives them in different places. Residues, ends and D or L forms follow the SMILES beside them.

Assays:
[1] = molecular target: T1, human GLP-1 receptor (GLP1R) (Homo sapiens, UniProt P43220); test: cAMP assay on CHO-JumpIn cells stably transfected with human GLP-1 receptor (HitHunter cAMP); format: cell-based; details: Table 2, cAMP accumulation, buffer PBS, 0.1% BSA, 100 μM RO 20-1724, 20% serum, 1 hr at RT, value ± spread, read-out: EC50 GLP1R;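 note: peptides tested as 4-fold serial dilution series, cells exposed 1 hr at RT in the dark, cAMP quantified against a cAMP standard calibration curve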
T1 construct: expressed in transfected cells; host or cells: CHO-JumpIn cells, stably transfected
Procedure: (§1) Briefly, a 2 μM solution of peptide was prepared, and 4-fold serial dilutions were made. 150 nL of the above titration was then dispensed into an Optiplate384 using an Echo555. […] The HitHunter® cAMP Assay kit calibration curve was prepared following the manufacturer’s protocol (DiscoveRx-90-0075L). 30,000 cells/well were added to the peptides, spun briefly at 500 rpm for 15 s and incubated at RT in the dark for 1 hr. The assay was developed as per the manufacturer’s instructions. cAMP accumulation due to GLP1R agonism or GCGR agonism was measured using an EnVision platereader (PerkinElmer), and calibrated using the cAMP standard curve. Data were analyzed using Assay Data Analyzer (ADA).

[2] = molecular target: T2, human glucagon receptor (GCGR) (Homo sapiens, UniProt P47871); test: cAMP assay on CHO-JumpIn cells stably transfected with human glucagon receptor (HitHunter cAMP); format: cell-based; details: cAMP accumulation, CHO-JumpIn cells with human GCGR, value ± spread;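 note: peptides tested as 4-fold serial dilutions starting from a 2 µM solution, cells exposed 1 hr at RT in darkness, cAMP quantified against a cAMP standard curve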
T2 construct: expressed in transfected cells; host or cells: CHO-JumpIn cells, stably transfected
Procedure: as §1

[3] = Table 2, buffer PBS, 0.1% BSA, 100 μM RO 20-1724, 20% serum, 1 hr at RT, read-out: EC50 GCGR

T1 sequence (P43220 24-463): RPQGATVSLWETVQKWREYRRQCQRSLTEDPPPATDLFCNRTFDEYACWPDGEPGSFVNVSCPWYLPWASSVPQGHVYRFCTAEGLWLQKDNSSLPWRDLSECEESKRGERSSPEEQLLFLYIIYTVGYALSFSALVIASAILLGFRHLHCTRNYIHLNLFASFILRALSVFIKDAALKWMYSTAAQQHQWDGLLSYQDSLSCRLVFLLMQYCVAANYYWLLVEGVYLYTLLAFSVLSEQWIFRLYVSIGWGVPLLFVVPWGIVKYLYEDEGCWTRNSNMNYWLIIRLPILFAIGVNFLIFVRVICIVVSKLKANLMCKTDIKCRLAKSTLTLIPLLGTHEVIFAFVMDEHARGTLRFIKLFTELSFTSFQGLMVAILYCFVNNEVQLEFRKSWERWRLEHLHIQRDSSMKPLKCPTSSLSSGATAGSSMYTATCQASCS
T2 sequence (P47871 26-477): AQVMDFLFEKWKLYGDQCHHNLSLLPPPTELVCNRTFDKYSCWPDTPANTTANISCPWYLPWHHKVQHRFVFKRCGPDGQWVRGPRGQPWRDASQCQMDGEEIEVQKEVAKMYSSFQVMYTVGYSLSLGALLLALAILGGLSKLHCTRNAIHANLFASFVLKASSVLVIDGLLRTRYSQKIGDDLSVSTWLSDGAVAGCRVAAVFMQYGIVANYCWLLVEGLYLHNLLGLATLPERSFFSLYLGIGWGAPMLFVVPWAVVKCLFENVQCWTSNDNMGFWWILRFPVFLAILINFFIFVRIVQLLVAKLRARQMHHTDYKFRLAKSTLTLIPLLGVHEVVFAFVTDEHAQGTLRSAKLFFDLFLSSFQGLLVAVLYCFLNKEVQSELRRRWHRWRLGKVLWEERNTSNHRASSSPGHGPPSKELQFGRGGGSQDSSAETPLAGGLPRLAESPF

An EC50 [1] of 16.7 ± 10.3 nM and an EC50 [2, 3] of 8.45 ± 2.67 nM were found for `CSCC[C@H](NC(=O)[C@H](CC(C)C)NC(=O)[C@H](Cc1c[nH]c2ccccc12)NC(=O)[C@H](CCC(N)=O)NC(=O)[C@@H](NC(=O)[C@H](Cc1ccccc1)NC(=O)[C@H](CC(=O)O)NC(=O)[C@H](CCC(N)=O)NC(=O)[C@H](C)NC(=O)[C@H](CCCNC(=N)N)NC(=O)[C@H](CCCNC(=N)N)NC(=O)[C@H](CO)NC(=O)[C@H](CC(=O)O)NC(=O)[C@H](CC(C)C)NC(=O)[C@H](Cc1ccc(O)cc1)NC(=O)[C@H](CCCCN)NC(=O)[C@H](CO)NC(=O)[C@H](Cc1ccc(O)cc1)NC(=O)[C@H](CC(=O)O)NC(=O)[C@H](CO)NC(=O)[C@H](Cc1c[nH]c2ccccc12)NC(=O)[C@H](Cc1ccccc1)NC(=O)[C@H](CC(N)=O)NC(=O)CNC(=O)[C@@H](NC(=O)[C@H](CO)NC(=O)[C@@H](N)Cc1c[nH]cn1)C(C)C)C(C)C)C(=O)N[C@@H](CC(C)C)C(=O)N[C@H](C(N)=O)[C@@H](C)O` [Peptide 1] (H-HSVGNFWSDYSKYLDSRRAQDFVQWLMLT-NH2) in this work.

An EC50 [1] of 0.184 ± 0.006 nM and an EC50 [2, 3] of 2.24 ± 0.334 nM were found for `CSCC[C@H](NC(=O)[C@H](CC(C)C)NC(=O)[C@H](Cc1c[nH]c2ccccc12)NC(=O)[C@H](CCC(N)=O)NC(=O)[C@@H](NC(=O)[C@H](Cc1ccccc1)NC(=O)[C@H](CC(=O)O)NC(=O)[C@H](Cc1c[nH]cn1)NC(=O)[C@H](C)NC(=O)[C@H](CCCNC(=N)N)NC(=O)[C@H](CCCNC(=N)N)NC(=O)[C@H](CC(=O)O)NC(=O)[C@H](CCC(=O)O)NC(=O)[C@@H](NC(=O)[C@H](Cc1ccc(O)cc1)NC(=O)[C@H](CCCCN)NC(=O)[C@H](CO)NC(=O)[C@H](Cc1ccc(O)cc1)NC(=O)[C@H](CC(=O)O)NC(=O)[C@H](CO)NC(=O)[C@@H](NC(=O)[C@H](Cc1ccccc1)NC(=O)[C@@H](NC(=O)CNC(=O)[C@H](CCC(N)=O)NC(=O)[C@H](CO)NC(=O)[C@@H](N)Cc1c[nH]cn1)[C@@H](C)O)[C@@H](C)O)C(C)C)C(C)C)C(=O)N[C@@H](CC(N)=O)C(=O)N[C@H](C(N)=O)[C@@H](C)O` [Peptide 2] (H-HSQGTFTSDYSKYVEDRRAHDFVQWLMNT-NH2) in this work.

An EC50 [1] of 0.427 ± 0.022 nM and an EC50 [2, 3] of 1.35 ± 0.173 nM were found for `CSCC[C@H](NC(=O)[C@H](CC(C)C)NC(=O)[C@H](Cc1c[nH]c2ccccc12)NC(=O)[C@H](CCC(N)=O)NC(=O)[C@@H](NC(=O)[C@H](Cc1ccccc1)NC(=O)[C@H](CC(=O)O)NC(=O)[C@H](Cc1c[nH]c2ccccc12)NC(=O)[C@H](C)NC(=O)[C@H](C)NC(=O)[C@H](CCCNC(=N)N)NC(=O)[C@H](CCC(=O)O)NC(=O)[C@H](CC(=O)O)NC(=O)[C@H](CC(C)C)NC(=O)[C@H](Cc1ccc(O)cc1)NC(=O)[C@H](CCCCN)NC(=O)[C@H](CCCNC(=N)N)NC(=O)[C@H](Cc1ccc(O)cc1)NC(=O)[C@H](CC(=O)O)NC(=O)[C@H](CO)NC(=O)[C@@H](NC(=O)[C@H](Cc1ccccc1)NC(=O)[C@@H](NC(=O)CNC(=O)[C@H](CCC(N)=O)NC(=O)[C@H](CO)NC(=O)[C@@H](N)Cc1c[nH]cn1)[C@@H](C)O)[C@@H](C)O)C(C)C)C(=O)N[C@@H](CC(N)=O)C(=O)N[C@H](C(N)=O)[C@@H](C)O` [Peptide 3] (H-HSQGTFTSDYRKYLDERAAWDFVQWLMNT-NH2) in this work.

An EC50 [1] of 1.33 ± 0.209 nM and an EC50 [2, 3] of 0.026 ± 0.002 nM were found for `CC[C@H](C)[C@H](NC(=O)[C@H](CC(=O)O)NC(=O)[C@H](CC(C)C)NC(=O)[C@H](Cc1ccc(O)cc1)NC(=O)[C@H](CCCCN)NC(=O)[C@H](CO)NC(=O)[C@H](Cc1ccc(O)cc1)NC(=O)[C@H](CC(=O)O)NC(=O)[C@H](CO)NC(=O)[C@@H](NC(=O)[C@H](Cc1ccccc1)NC(=O)[C@@H](NC(=O)CNC(=O)[C@H](CCC(N)=O)NC(=O)[C@H](CO)NC(=O)[C@@H](N)Cc1c[nH]cn1)[C@@H](C)O)[C@@H](C)O)C(=O)NCC(=O)N[C@@H](CCCNC(=N)N)C(=O)N[C@@H](C)C(=O)N[C@@H](CCC(N)=O)C(=O)N[C@@H](CC(=O)O)C(=O)N[C@@H](Cc1ccccc1)C(=O)N[C@H](C(=O)N[C@@H](CCC(N)=O)C(=O)N[C@@H](Cc1c[nH]c2ccccc12)C(=O)N[C@@H](CC(C)C)C(=O)N[C@@H](CC(C)C)C(=O)N[C@@H](CC(N)=O)C(=O)N[C@H](C(N)=O)[C@@H](C)O)C(C)C` [Peptide 4] (H-HSQGTFTSDYSKYLDIGRAQDFVQWLLNT-NH2) in this work.

An EC50 [2, 3] of 2.6 ± 3.68 nM was found for `CC[C@H](C)[C@H](N)C(=O)N[C@@H](CC(N)=O)C(=O)N[C@@H](Cc1c[nH]cn1)C(=O)N[C@@H](CCC(=O)O)C(=O)N[C@@H](CCC(N)=O)C(=O)N[C@@H](Cc1c[nH]c2ccccc12)C(=O)N[C@@H](C)C(=O)N[C@@H](Cc1ccccc1)C(=O)N[C@H](C(=O)N[C@@H](CO)C(=O)N[C@@H](CC(=O)O)C(=O)N[C@@H](Cc1ccc(O)cc1)C(=O)N[C@@H](CO)C(=O)N[C@@H](CCCCN)C(=O)N[C@@H](Cc1ccc(O)cc1)C(=O)N[C@@H](CC(C)C)C(=O)N[C@@H](CC(=O)O)C(=O)N[C@@H](CO)C(=O)N[C@@H](CCCNC(=N)N)C(=O)N[C@@H](CCCNC(=N)N)C(=O)N[C@@H](C)C(=O)N[C@@H](CCC(N)=O)C(=O)N[C@@H](CC(=O)O)C(=O)N[C@@H](Cc1ccccc1)C(=O)N[C@H](C(=O)N[C@@H](CCC(N)=O)C(=O)N[C@@H](Cc1c[nH]c2ccccc12)C(=O)N[C@@H](CC(C)C)C(=O)N[C@@H](CCSC)C(=O)N[C@@H](CC(N)=O)C(=O)N[C@H](C(N)=O)[C@@H](C)O)C(C)C)[C@@H](C)O` [Peptide 14] (H-INHEQWAFTSDYSKYLDSRRAQDFVQWLMNT-NH2) in this work.

An EC50 [1] of 0.018 ± 0.001 nM was found for `CC(C)C[C@H](NC(=O)[C@H](CC(C)C)NC(=O)[C@H](Cc1c[nH]c2ccccc12)NC(=O)[C@H](CCC(N)=O)NC(=O)[C@@H](NC(=O)[C@H](Cc1ccccc1)NC(=O)[C@H](CC(=O)O)NC(=O)[C@H](CCC(N)=O)NC(=O)[C@H](C)NC(=O)[C@H](CCCNC(=N)N)NC(=O)[C@H](CCCNC(=N)N)NC(=O)[C@H](CO)NC(=O)[C@H](CC(=O)O)NC(=O)[C@H](CC(C)C)NC(=O)[C@H](Cc1ccc(O)cc1)NC(=O)[C@H](CCCCN)NC(=O)[C@H](CO)NC(=O)[C@H](Cc1ccc(O)cc1)NC(=O)[C@H](CC(=O)O)NC(=O)[C@H](CO)NC(=O)[C@@H](NC(=O)[C@H](Cc1ccccc1)NC(=O)[C@@H](NC(=O)CNC(=O)[C@H](CCC(N)=O)NC(=O)[C@H](CO)NC(=O)[C@@H](N)Cc1c[nH]cn1)[C@@H](C)O)[C@@H](C)O)C(C)C)C(=O)N[C@@H](CC(=O)O)C(=O)N[C@@H](CO)C(N)=O` [Peptide 35] in this work.

An EC50 ([2]; Table 3, engineered versus parent peptides, read-out: EC50 hGCGR) of 0.023 ± 0.004 nM was found for `CCCCCCCCCCCCCCCC(=O)N[C@@H](CCC(=O)N[C@@H](CCC(=O)NCCCC[C@H](NC(=O)[C@H](CC(=O)O)NC(=O)[C@H](CO)NC(=O)[C@@H](NC(=O)[C@H](Cc1ccccc1)NC(=O)[C@@H](NC(=O)CNC(=O)[C@H](CCC(N)=O)NC(=O)[C@@H](CO)NC(=O)[C@@H](N)Cc1c[nH]cn1)[C@@H](C)O)[C@@H](C)O)C(=O)N[C@@H](CO)C(=O)N[C@@H](CCCCN)C(=O)N[C@@H](Cc1ccc(O)cc1)C(=O)N[C@@H](CC(C)C)C(=O)N[C@@H](CC(=O)O)C(=O)N[C@@H](CO)C(=O)N[C@@H](CCCNC(=N)N)C(=O)N[C@@H](CCCNC(=N)N)C(=O)N[C@@H](C)C(=O)N[C@@H](Cc1c[nH]cn1)C(=O)N[C@@H](CC(=O)O)C(=O)N[C@@H](Cc1ccccc1)C(=O)N[C@H](C(=O)N[C@@H](CCC(N)=O)C(=O)N[C@@H](Cc1c[nH]c2ccccc12)C(=O)N[C@@H](CC(C)C)C(=O)N[C@@H](CC(C)C)C(=O)N[C@@H](CC(N)=O)C(=O)N[C@H](C(N)=O)[C@@H](C)O)C(C)C)C(=O)O)C(=O)O` [Peptide 36] in this work.
